Laboratory results reported in article PMC12616683, “In Vivo Atlas of Neuroprotective Cyclic Dipeptides Derived from Food Gelatin Using Peptidomics and Feature-Based Molecular Networking” (Journal of Agricultural and Food Chemistry, 2025).
Peptide text beside a SMILES is read from it.

test: FBMN analysis of short peptides in small intestine contents and serum after oral DHG; conditions: small intestine contents, 30 min after oral DHG, C57 mice; FBMN feature intensity, peptides smaller than 690 Da

Row | SMILES | Peptide signal (feature intensity) in the small intestine, 30 min
1 | O=C(O)C(Cc1ccccc1)NC(=O)C1CCCN1 (stereo not drawn) [Pro-Phe] (H-Pro-Phe-OH; configuration not given here) | 9.57E+05
2 | N[C@@H](Cc1cnc[nH]1)C(=O)N[C@@H](Cc1c[nH]c2ccccc12)C(=O)O [His-Trp] | 1.94E+06
3 | N[C@@H](Cc1c[nH]c2ccccc12)C(=O)N[C@@H](CCC(=O)O)C(=O)O [Trp-Glu] (H-Trp-Glu-OH) | 0.00E+00
4 | CC(C)[C@H](N)C(=O)N[C@H](C(=O)O)C(C)C [Val-Val] (H-Val-Val-OH) | 5.52E+06
5 | CC(C)C[C@H](N)C(=O)N[C@@H](CCC(=O)O)C(=O)N[C@@H](CCCCN)C(=O)O [Leu-Glu-Lys] (H-Leu-Glu-Lys-OH) | 0.00E+00
6 | CC(C)[C@H](NC(=O)[C@@H](N)CCC(=O)O)C(=O)N[C@@H](Cc1ccccc1)C(=O)O [Glu-Val-Phe] (H-Glu-Val-Phe-OH) | 2.73E+05
7 | CSCC[C@H](NC(=O)[C@@H](N)Cc1c[nH]c2ccccc12)C(=O)O [Trp-Met] (H-Trp-Met-OH) | 0.00E+00
8 | CCC(C)C(N)C(=O)NC(CCCCN)C(=O)O (stereo not drawn) [Ile-Lys] (H-Ile-Lys-OH; configuration not given here) | 0.00E+00
9 | CC(C)C[C@H](N)C(=O)N[C@@H](CCC(=O)O)C(=O)O [Leu-Glu] (H-Leu-Glu-OH) | 7.88E+06
10 | N[C@@H](Cc1ccccc1)C(=O)N[C@@H](CCC(=O)O)C(=O)O [Phe-Glu] (H-Phe-Glu-OH) | 1.31E+07
11 | O=C1N[C@@H](Cc2ccccc2)C(=O)N2C[C@@H](O)C[C@@H]12 [cyclo(L-Phe-L-4-Hyp)] | 1.19E+07

same assay, conditions: small intestine contents, 60 min after oral DHG, C57 mice; FBMN feature intensity, peptides smaller than 690 Da

Row | SMILES | Peptide signal (feature intensity) in the small intestine, 60 min
12 | O=C(O)C(Cc1ccccc1)NC(=O)C1CCCN1 (stereo not drawn) [Pro-Phe] (H-Pro-Phe-OH; configuration not given here) | 9.73E+05
13 | N[C@@H](Cc1cnc[nH]1)C(=O)N[C@@H](Cc1c[nH]c2ccccc12)C(=O)O [His-Trp] | 0.00E+00
14 | N[C@@H](Cc1c[nH]c2ccccc12)C(=O)N[C@@H](CCC(=O)O)C(=O)O [Trp-Glu] (H-Trp-Glu-OH) | 0.00E+00
15 | CC(C)[C@H](N)C(=O)N[C@H](C(=O)O)C(C)C [Val-Val] (H-Val-Val-OH) | 1.24E+07
16 | CC(C)C[C@H](N)C(=O)N[C@@H](CCC(=O)O)C(=O)N[C@@H](CCCCN)C(=O)O [Leu-Glu-Lys] (H-Leu-Glu-Lys-OH) | 4.20E+05
17 | CC(C)[C@H](NC(=O)[C@@H](N)CCC(=O)O)C(=O)N[C@@H](Cc1ccccc1)C(=O)O [Glu-Val-Phe] (H-Glu-Val-Phe-OH) | 1.52E+05
18 | CSCC[C@H](NC(=O)[C@@H](N)Cc1c[nH]c2ccccc12)C(=O)O [Trp-Met] (H-Trp-Met-OH) | 0.00E+00
19 | CCC(C)C(N)C(=O)NC(CCCCN)C(=O)O (stereo not drawn) [Ile-Lys] (H-Ile-Lys-OH; configuration not given here) | 0.00E+00
20 | CC(C)C[C@H](N)C(=O)N[C@@H](CCC(=O)O)C(=O)O [Leu-Glu] (H-Leu-Glu-OH) | 7.70E+06
21 | N[C@@H](Cc1ccccc1)C(=O)N[C@@H](CCC(=O)O)C(=O)O [Phe-Glu] (H-Phe-Glu-OH) | 3.77E+06
22 | O=C1N[C@@H](Cc2ccccc2)C(=O)N2C[C@@H](O)C[C@@H]12 [cyclo(L-Phe-L-4-Hyp)] | 0.00E+00

same assay, conditions: small intestine contents, 120 min after oral DHG, C57 mice; FBMN feature intensity, peptides smaller than 690 Da

Row | SMILES | Peptide signal (feature intensity) in the small intestine, 120 min
23 | O=C(O)C(Cc1ccccc1)NC(=O)C1CCCN1 (stereo not drawn) [Pro-Phe] (H-Pro-Phe-OH; configuration not given here) | 1.22E+06
24 | N[C@@H](Cc1cnc[nH]1)C(=O)N[C@@H](Cc1c[nH]c2ccccc12)C(=O)O [His-Trp] | 1.97E+06
25 | N[C@@H](Cc1c[nH]c2ccccc12)C(=O)N[C@@H](CCC(=O)O)C(=O)O [Trp-Glu] (H-Trp-Glu-OH) | 0.00E+00
26 | CC(C)[C@H](N)C(=O)N[C@H](C(=O)O)C(C)C [Val-Val] (H-Val-Val-OH) | 0.00E+00
27 | CC(C)C[C@H](N)C(=O)N[C@@H](CCC(=O)O)C(=O)N[C@@H](CCCCN)C(=O)O [Leu-Glu-Lys] (H-Leu-Glu-Lys-OH) | 0.00E+00
28 | CC(C)[C@H](NC(=O)[C@@H](N)CCC(=O)O)C(=O)N[C@@H](Cc1ccccc1)C(=O)O [Glu-Val-Phe] (H-Glu-Val-Phe-OH) | 4.18E+05
29 | CSCC[C@H](NC(=O)[C@@H](N)Cc1c[nH]c2ccccc12)C(=O)O [Trp-Met] (H-Trp-Met-OH) | 0.00E+00
30 | CCC(C)C(N)C(=O)NC(CCCCN)C(=O)O (stereo not drawn) [Ile-Lys] (H-Ile-Lys-OH; configuration not given here) | 0.00E+00
31 | CC(C)C[C@H](N)C(=O)N[C@@H](CCC(=O)O)C(=O)O [Leu-Glu] (H-Leu-Glu-OH) | 0.00E+00
32 | N[C@@H](Cc1ccccc1)C(=O)N[C@@H](CCC(=O)O)C(=O)O [Phe-Glu] (H-Phe-Glu-OH) | 0.00E+00
33 | O=C1N[C@@H](Cc2ccccc2)C(=O)N2C[C@@H](O)C[C@@H]12 [cyclo(L-Phe-L-4-Hyp)] | 1.15E+07

same assay, conditions: small intestine contents, 240 min after oral DHG, C57 mice; FBMN feature intensity, peptides smaller than 690 Da

Row | SMILES | Peptide signal (feature intensity) in the small intestine, 240 min
34 | O=C(O)C(Cc1ccccc1)NC(=O)C1CCCN1 (stereo not drawn) [Pro-Phe] (H-Pro-Phe-OH; configuration not given here) | 0.00E+00
35 | N[C@@H](Cc1cnc[nH]1)C(=O)N[C@@H](Cc1c[nH]c2ccccc12)C(=O)O [His-Trp] | 5.05E+06
36 | N[C@@H](Cc1c[nH]c2ccccc12)C(=O)N[C@@H](CCC(=O)O)C(=O)O [Trp-Glu] (H-Trp-Glu-OH) | 1.26E+07
37 | CC(C)[C@H](N)C(=O)N[C@H](C(=O)O)C(C)C [Val-Val] (H-Val-Val-OH) | 0.00E+00
38 | CC(C)C[C@H](N)C(=O)N[C@@H](CCC(=O)O)C(=O)N[C@@H](CCCCN)C(=O)O [Leu-Glu-Lys] (H-Leu-Glu-Lys-OH) | 9.49E+05
39 | CC(C)[C@H](NC(=O)[C@@H](N)CCC(=O)O)C(=O)N[C@@H](Cc1ccccc1)C(=O)O [Glu-Val-Phe] (H-Glu-Val-Phe-OH) | 1.30E+06
40 | CSCC[C@H](NC(=O)[C@@H](N)Cc1c[nH]c2ccccc12)C(=O)O [Trp-Met] (H-Trp-Met-OH) | 1.16E+06
41 | CCC(C)C(N)C(=O)NC(CCCCN)C(=O)O (stereo not drawn) [Ile-Lys] (H-Ile-Lys-OH; configuration not given here) | 0.00E+00
42 | CC(C)C[C@H](N)C(=O)N[C@@H](CCC(=O)O)C(=O)O [Leu-Glu] (H-Leu-Glu-OH) | 0.00E+00
43 | N[C@@H](Cc1ccccc1)C(=O)N[C@@H](CCC(=O)O)C(=O)O [Phe-Glu] (H-Phe-Glu-OH) | 0.00E+00
44 | O=C1N[C@@H](Cc2ccccc2)C(=O)N2C[C@@H](O)C[C@@H]12 [cyclo(L-Phe-L-4-Hyp)] | 6.80E+06
